This note sets out measurements from PMC9822133, “Design, Synthesis and Antiproliferative Evaluation of Bis-Indole Derivatives with a Phenyl Linker: Focus on Autophagy” (Molecules, 2022).

The IC50 is the point on the concentration scale where inhibition reaches its midpoint. A high value points to weaker potency in that assay.

One assay has as its system Caco-2. The assay can be described thus: MTT screening assay, Caco-2. The assay is classed as cell-based. The following applies: Homo sapiens, 72 h incubation. An excerpt:
(§1) The ability of newly synthesized indole phytoalexins to suppress cell proliferation was screened in vitro on eight cancer cell lines including human colorectal carcinoma (Caco-2 and HCT116), human cervical cancer (HeLa), human breast adenocarcinoma (MCF-7, MDA-MB-231), human alveolar adenocarcinoma (A549) and human leukemic T cell lymphoma (Jurkat), and two non-cancer cell lines (MCF-10A, Cos-7).
(§2) The cell lines used for this study were Caco-2 (human colorectal adenocarcinoma cell line, American Type Culture Collection, Manassas, VA, USA (ATCC)), HCT116 (human colorectal carcinoma cells European Collection of Authenticated Cell Cultures, Salisbury, UK (ECACC)), HeLa (human cervical tumor cells, ECACC), MCF-7 (human breast tumor cells, ECACC), MDA-MB-231 (human breast tumor cells, ATCC), A549 (human lung carcinoma cells, ATCC), BLM (human melanoma lung metastases, a gift from prof. K. Smetana, Institute of Anatomy, Charles University in Prague), Jurkat (human leukemia cell line, ECACC), Cos-7 (immortalized monkey kidney fibroblasts, ATCC) and MCF-10A (human mammary epithelial cells, ATCC). Caco-2, MCF-7, BLM, Cos-7 and A549 cells were cultured in Dulbecco’s Modified Eagle’s Medium (DMEM) with high glucose and sodium pyruvate (GE Healthcare, Piscataway, NJ, USA); HCT116 lines, HeLa, MDA-MB-231 and Jurkat were cultured in RPMI-1640 medium; and MCF10A cells were cultured in high glucose DMEM/F12 (Dulbecco’s Modified Eagle’s Medium F12). The media were enriched with 10% fetal bovine serum (FBS) and a 1% solution of a mixture of antibiotics and antimycotics 1× HyClone™ (GE Healthcare, Chicago, IL, USA). DMEM/F12 medium was supplemented with epidermal growth factor (EGF) (20 ng/mL final), hydrocortisone (0.5 μg/mL final) and insulin (10 μg/mL final) (Sigma-Aldrich Chemie, Steinheim, Germany). The cells were placed in an incubator at 37 °C with humidified air containing 5% CO2.
(§3) The MTT assay is a colorimetric method used to quantify the metabolic activity of cells. MTT (3-(4,5-di-methylthiazol-2-yl)2,5-diphenyltetrazolium bromide) (Sigma-Aldrich Chemie, Steinheim, Germany) is reduced by oxidoreductases in the cytosol of cells to light-absorbing formazan, the presence of which can be measured spectrophotometrically and determines the half-maximal inhibitory concentration (IC50). A549 cells were seeded in […] culture plates at a density of 5 × 10^3 per well. […]
(§4) We also incubated the cells with chloroquine at concentrations of 5–20 µM, which was added 1 h before the addition of the test substance, and cisplatin at concentrations of 3–10 µM. […] After 24 h, the absorbance was measured at a wavelength of 540 nm using an automated Cytation™ 3 Cell Imaging Multi-Mode Reader (Biotek, Winooski, VT, USA). […]
For orientation: Formazan colour is commonly taken as a measure of viable cells.

The subject of a further assay is Cos-7. The assay can be described thus: MTT screening assay, Cos-7 non-cancer cells. The assay is classed as cell-based, monkey. The settings on record: Primates, 72 h incubation.
From the text: as §1, §2, §3, §4

Assay [1] has as its system superoxide dismutase (SOD). In words: SOD activity in treated A549 cells. Format: cell-based, human. The following applies: A549, 20 µM. The source says: Glutathione is an important intracellular molecule involved in carcinogen detoxification. On the other hand, its elevated state in cancer cells is often associated with resistance to chemotherapy. […] Because high levels of GSH are associated with cancer cell resistance, the GHS-depleting effect of compound 49 could be interesting due to new cancer chemosensitizer development. In the case of GST and GR, we hypothesize that an increase in the activity of both enzymes may be a compensatory mechanism induced by GSH depletion.
Both floating and adherent A549 cells were harvested at 24, 48, and 72 h after treatment with compound 49 (20 µM). SOD determination kit, Glutathione Peroxidase Cellular Activity Assay kit, Glutathione Reductase Assay Kit and Glutathione-S-transferase (GST) Assay Kit (all Sigma Aldrich, Germany) were used for the detection of relevant enzyme activity. Reduced glutathione (GSH) content was measured by the method originally described by Floreani et al.. Assays were performed on an M 501 single beam UV/VIS spectrophotometer (Spectronic Camspec Ltd., Leeds, United Kingdom). All measured parameters were calculated per milligram or gram of protein determined using the bicinchoninic acid assay.

In a further assay the test system is A549 cells. In words: MTT assay with chloroquine combination. The assay is classed as cell-based, human. The following applies: 49 20 μM + CQ 5, 10 and 20 μM, 72 h. The method, then:
as §3
We also incubated the cells with chloroquine at concentrations of 5–20 µM, which was added 1 h before the addition of the test substance, and cisplatin at concentrations of 3–10 µM. Cisplatin was added 24 h after the addition of 49. After 72 h of incubation, 10 µL of MTT (5 mg/mL) was added to each well. After 4 h, formazan crystals formed in the wells, which were dissolved in 100 uL of 10% SDS (sodium dodecyl sulfate). After 24 h, the absorbance was measured at a wavelength of 540 nm using an automated Cytation™ 3 Cell Imaging Multi-Mode Reader (Biotek, Winooski, VT, USA). These experiments were performed in three independent replicates.

Where only a bound is given, the exact number is not on record here.

For `CC(C)(C)OC(=O)n1cc(CNC(=O)Nc2ccc(NC(=O)NCc3cn(C(=O)OC(C)(C)C)c4ccccc34)cc2)c2ccccc21` [Compound 49, N,N′-(1,4-phenylene)bis{N′-[1-(tert-butoxycarbonyl)indol-3-yl]methyl (urea)}], the IC50 in the assay on Caco-2 was 8.6 ± 0.9 µM; in the assay on Cos-7, > 100 µM. For the same compound, the results for the SOD in assay [1] (24 h), in assay [1] (48 h) and in assay [1] (72 h) were 0.408 ± 0.24 μkat/mg Prot, 0.526 ± 0.27 μkat/mg Prot and 0.523 ± 0.38 μkat/mg Prot, respectively. The “effect of chloroquine co-treatment on the antiproliferative effect of compound 49 (A549 cell survival)” value with A549 cells is “significantly potentiated”.
